According to patent publication US20180186742A1, “PICOLINAMIDES AS FUNGICIDES” (Dow AgroSciences LLC, priority 2017, published 2018):
Like-named read-outs stand apart in the source and are kept apart here.

Experiments:
Format in all cases: in vivo
[1] = test system: Magnaporthe grisea; Anamorph: Pyricularia oryzae; experiment: whole plant or invertebrate; conditions: 24 h, read-out: PYRIOR Disease Control
Rhyncosporium secalis = experiment: Barley scald (RHYNSE), disease control on barley seedlings; conditions: Hordeum vulgare, 24 h, 1DP (1 Day Protectant) test at 100 ppm
Description: Technical grades of materials were dissolved in acetone, which were then mixed with nine volumes of water containing 110 ppm Triton X-100. The fungicide solutions were applied onto wheat seedlings using an automated booth sprayer to run-off. All sprayed plants were allowed to air dry prior to further handling. All fungicides were evaluated using the aforementioned method for their activity vs. all target diseases, unless stated otherwise. Wheat leaf blotch and brown rust activity were also evaluated using track spray applications, in which case the fungicides were formulated as EC formulations, containing 0.1% Trycol 5941 in the spray solutions. Barley seedlings (variety Harrington) were propagated in soil-less Metro mix, with each pot having 8 to 12 plants, and used in the test when first leaf was fully emerged. Test plants were inoculated by an aqueous spore suspension of Rhyncosporium secalis 24 hr after fungicide treatments. After inoculation the plants were kept in a dew room at 20° C. with 100% relative humidity for 48 hr. The plants were then transferred to a greenhouse set at 20° C. for disease to develop. Fungicide formulation, application and disease assessment on the sprayed leaves followed the procedures as described in the Example A.

[2] = test system: Glomerella lagenarium; Anamorph: Colletotrichum lagenarium; experiment: Cucumber anthracnose (COLLLA), disease control on cucumber seedlings; conditions: Colletotrichum orbiculare, 1DP test at 100 ppm, read-out: COLLLA disease control rating
Description: Technical grades of materials were dissolved in acetone, which were then mixed with nine volumes of water containing 110 ppm Triton X-100. The fungicide solutions were applied onto wheat seedlings using an automated booth sprayer to run-off. All sprayed plants were allowed to air dry prior to further handling. All fungicides were evaluated using the aforementioned method for their activity vs. all target diseases, unless stated otherwise. Wheat leaf blotch and brown rust activity were also evaluated using track spray applications, in which case the fungicides were formulated as EC formulations, containing 0.1% Trycol 5941 in the spray solutions. Cucumber seedlings (variety Bush Pickle) were propagated in soil-less Metro mix, with each pot having one plant, and used in the test when 12 to 14 days old. Test plants were inoculated with an aqueous spore suspension of Colletotrichum lagenarium 24 hr after fungicide treatments. After inoculation the plants were kept in a dew room at 22° C. with 100% relative humidity for 48 hr to permit spores to germinate and infect the leaf. The plants were then transferred to a growth room set at 22° C. for disease to develop. Fungicide formulation, application and disease assessment on the sprayed leaves followed the procedures as described in the Example A.

Parastagonospora nodorum = experiment: Wheat glume blotch (LEPTNO), disease control on wheat seedlings; conditions: 1DP test at 100 ppm, read-out: LEPTNO disease control rating
Description: Technical grades of materials were dissolved in acetone, which were then mixed with nine volumes of water containing 110 ppm Triton X-100. The fungicide solutions were applied onto wheat seedlings using an automated booth sprayer to run-off. All sprayed plants were allowed to air dry prior to further handling. All fungicides were evaluated using the aforementioned method for their activity vs. all target diseases, unless stated otherwise. Wheat leaf blotch and brown rust activity were also evaluated using track spray applications, in which case the fungicides were formulated as EC formulations, containing 0.1% Trycol 5941 in the spray solutions. Wheat plants (variety Yuma) were grown from seed in a greenhouse in 50% mineral soil/50% soil-less Metro mix until the first leaf was fully emerged, with 7-10 seedlings per pot. These plants were inoculated with an aqueous spore suspension of Parastagonospora nodorum 24 hr after fungicide treatments. After inoculation the plants were kept in 100% relative humidity (one day in a dark dew chamber followed by two days in a lighted dew chamber at 20° C.) to permit spores to germinate and infect the leaf. The plants were then transferred to a greenhouse set at 20° C. for disease to develop. Fungicide formulation, application and disease assessment followed the procedures as described in the Example A.

Phakopsora pachyrhizi = experiment: Asian soybean rust (PHAKPA), disease control on soybean seedlings; conditions: High volume application at 25 ppm
Method in brief: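 Two-week-old Williams 82 soybean seedlings were sprayed to run-off with compound in acetone/water (1:9) containing 0.011% Tween 20. Inoculation was 3 days before (curative) or 1 day after (protectant) treatment, followed by 24 h dark dew at 22 °C, 100% RH, then 23 °C; disease severity scored on sprayed leaves.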

Puccinia triticina = experiment: Wheat brown rust (PUCCRT), disease control on wheat seedlings; conditions: low volume application at 121.5 g/H
Method in brief: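 Compounds in acetone, diluted with nine volumes of water containing 110 ppm Triton X-100, sprayed to run-off on first-leaf Yuma wheat seedlings; track-spray tests used EC formulations with 0.1% Trycol 5941. Puccinia triticina spores applied before or after treatment. Overnight dark dew room at 22° C, 100% humidity, then greenhouse at 24° C.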

[3] = 24 h, 1 Day Protectant, read-out: PHAKPA 1DP disease control rating
[4] = 72 h, 3 Day Curative, read-out: PHAKPA 3DC disease control rating
[5] = 24 h, 1 Day Protectant, wheat brown rust, read-out: PUCCRT 1DP disease control, LV activity
[6] = 72 h, 3 Day Curative, wheat brown rust, read-out: PUCCRT 3DC disease control, LV activity
[7] = 24 h, 1 Day Protectant, read-out: PUCCRT disease control, 1DP, LV activity
[8] = 72 h, 3 Day Curative, read-out: PUCCRT disease control, 3DC, LV activity

Compound | pest or weed control at 100 ppm [1] [%] | pest or weed control at 100 ppm (Rhyncosporium secalis) [%] | pest or weed control at 100 ppm [2] [%] | pest or weed control at 100 ppm (Parastagonospora nodorum) [%] | pest or weed control at 25 ppm (Phakopsora pachyrhizi; [3]) [%] | pest or weed control at 25 ppm (Phakopsora pachyrhizi; [4]) [%] | pest or weed control at 121.5 g/ha (Puccinia triticina; [5]) [%] | pest or weed control at 121.5 g/ha (Puccinia triticina; [6]) [%] | pest or weed control at 121.5 g/ha (Puccinia triticina; [7]) [%] | pest or weed control at 121.5 g/ha (Puccinia triticina; [8]) [%]
CCOC(=O)Oc1c(OC)ccnc1C(=O)N[C@@H](C)C(=O)O[C@@H](C)[C@H](c1ccc(F)cc1C)C(C)C [Compound 372] | < 80 | < 80 | > 80 | > 80 | > 80 | > 80 | – | – | – | –
COc1ccnc(C(=O)N[C@@H](C)C(=O)O[C@@H](C)[C@H](c2ccc(F)cc2C)C(C)C)c1OC(=O)C(C)(C)C [Compound 374] | < 80 | < 80 | < 80 | > 80 | > 80 | < 80 | > 80 | < 80 | – | –
COc1ccnc(C(=O)N[C@@H](C)C(=O)O[C@@H](C)[C@H](c2ccccc2C)C(C)C)c1OC(C)=O [Compound 364] | > 80 | < 80 | > 80 | < 80 | > 80 | > 80 | > 80 | < 80 | – | –
CCC(C)C(=O)Oc1c(OC)ccnc1C(=O)N[C@@H](C)C(=O)O[C@@H](C)[C@H](c1ccc(F)cc1C)C(C)C (some centres unmarked) [Compound 355] | < 80 | < 80 | > 80 | > 80 | > 80 | > 80 | – | – | > 80 | < 80
COc1ccnc(C(=O)N[C@@H](C)C(=O)O[C@@H](C)[C@H](c2cccc(F)c2C)C(C)C)c1OC(C)=O [Compound 359] | > 80 | > 80 | > 80 | > 80 | > 80 | > 80 | – | – | > 80 | > 80
COc1ccnc(C(=O)N[C@@H](C)C(=O)O[C@@H](C)[C@H](c2ccc(F)cc2C)C(C)C)c1OC(=O)CC(C)C [Compound 356] | < 80 | < 80 | < 80 | > 80 | > 80 | > 80 | – | – | > 80 | < 80
COc1ccnc(C(=O)N[C@@H](C)C(=O)O[C@@H](C)[C@H](c2ccccc2C)C(C)C)c1OC(=O)C(C)C [Compound 375] | > 80 | < 80 | > 80 | > 80 | > 80 | > 80 | > 80 | > 80 | – | –
COc1ccnc2c(=O)n([C@@H](C)C(=O)O[C@@H](C)[C@H](c3ccc(F)cc3C)C(C)C)c(=O)oc12 [Compound 217] | > 80 | < 80 | < 0 | > 80 | > 80 | > 80 | – | – | > 80 | > 80
